What was measured:
S1PR2 = molecular target: T1, S1PR2 (Homo sapiens, UniProt O95136); test: S1PR2 binding assay (competition with radioactively labeled S1P, SpA); settings: membranes from stable cell line over expressing S1PR2, SpA beads; read-out: S1P2 EC50 (nM), S1PR2 binding EC50
T1 construct: expressed in transfected cells
Protocol: The following assay can be used for determination of S1PR2 binding. The binding assay measures the potential to compete with radioactively labeled S1P for binding to the receptor.
The assay is performed in a96 well plate where the following reagents are added. First 50 μL compound is added into the assay plate, followed by addition of 100 μL ofa mixture consisting of membrane and Scintillation proximity Assay (SpA) beads [mixture consists […] membranes derived from stable cell line over expressing SPR2, 0.5 mg/well Polyvinyltoluene-Wheat Germ-Agglutinin (PVT-WGA) beads (Perkin Elmer, RPNQOO1)]. All components are diluted in assay buffer containing 20 mM Tris pH 7.5; 10 mM MgCl2; 100 mM NaCl; 0.4% BSA FAF; 1 mM Na3VO4) and incubated for 15 min until addition to the assay plate. Subsequently, 50 ul of radioactively labeled S1P is added to the wells (Sphingosine, D-erythro-[3-3H] 1-phosphate; ARC; ART0778). After an incubation for 2 h at room temperature, plates are centrifuged at 2000 rpm during 20 min. Plates are read on a Topcount reader (Perkin Elmer) immediately after centrifugation (readout time, 1 min/well).

[1] = molecular target: T2, human GPCR sphingosine 1-phosphate receptor 2 (Homo sapiens, UniProt O95136); test: S1PR2 antagonist Ca2+ flux assay; type: cell-based; settings: antagonist mode, CHO-S1PR2 cells, S1P at EC80, Ca2+ fluorescence; read-out: S1P2 EC50 (nM), S1P2 antagonist EC50
T2 construct: host or cells: CHO
T2 sequence (O95136 whole entry): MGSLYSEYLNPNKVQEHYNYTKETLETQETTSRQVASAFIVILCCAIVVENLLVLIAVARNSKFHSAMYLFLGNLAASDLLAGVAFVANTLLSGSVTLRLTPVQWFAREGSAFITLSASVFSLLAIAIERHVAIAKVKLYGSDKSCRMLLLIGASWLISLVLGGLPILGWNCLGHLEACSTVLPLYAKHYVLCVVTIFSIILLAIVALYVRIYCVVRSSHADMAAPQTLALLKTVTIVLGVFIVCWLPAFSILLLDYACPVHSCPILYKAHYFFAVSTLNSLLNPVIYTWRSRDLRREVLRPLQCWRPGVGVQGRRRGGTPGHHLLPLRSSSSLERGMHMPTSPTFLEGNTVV
Protocol: Triggering of S1PR2 by administration of Sphingosine-1-phosphate leads to a transient increase in intracellular Ca^2+. The Ca^2+ flux assays are measuring the release of Ca^2+ intracellularly by use of a Ca^2+ sensitive fluorescent dye. The assay is firstly run in agonist mode (incubation of compounds alone) to ensure that the Ca^2+ released measured is not caused by the test compound having an agonistic effect. Then the assay is continued in antagonist mode (Sphingosine-1-Phosphate added to incubated medium containing the test compounds).
CHO cells stably overexpressing human GPCR sphingosine 1-phosphate receptor 2 (CHO-S1PR2 Perkin Elmer; ES-594-A) are seeded from a frozen stock in 384 wells sterile microplates (50 μL; 7,500 cells/well) and are incubated overnight at 37° C. and 5% CO2. The next day cells are washed twice with starvation medium (F-12 Ham's medium containing 0.1% BSA (Fatty acid free: FAF)) and left in 25 μL starvation medium for 1 h at 37° C., 5% CO2. After this starvation cells are incubated with 25 μL buffer containing the Ca^2+-sensitive fluorescent dye (0.5 mg Fluo8+125 mg Allura Red in 100 mL of 1% DMSO, in HBSS+20 mM Hepes+5 mM probenecid). The cells are incubated for an additional 1 h after which 10 μL compounds, diluted in HBSS buffer with 20 mM Hepes and 0.1% BSA (FAF), are added to the cells and intracellular Ca2+ changes are immediately measured by reading fluorescence during 3 min (FDSS/pCELL reader). The ratio of the maximal fluorescence over the background fluorescence before compound injection is used to determine compound response.
After readout of the agonist activity, the plates are incubated for 15 min at 37° C. and 5% CO2. Then, cells are stimulated with 10 μL Sphingosine-1-Phosphate (S1P) (Avanti Polar lipids-860492P) at its EC80 concentration. Intracellular Ca2+ changes are immediately measured by reading fluorescence during 3 min (FDSS/pCELL reader). The ratio of the maximal fluorescence over the background fluorescence before compound injection is used to determine compound response.
The obtained ratio's for agonist and antagonist readout were normalized versus vehicle and EC 100 of S1P ascontrols for agonist mode and versus vehicle and […]. From these normalized data EC50 of the compounds are derived.

T1 sequence (O95136 whole entry): as above

SMILES	EC50 (S1PR2) [nM]	EC50 [1] [nM]
CCOc1cc2nc(Cc3nn(CC(=O)O)c(=O)c4ccccc34)[nH]c2cc1F [Compound 129, 2-[4-[(5-ethoxy-6-fluoro-1H-benzimidazol-2-yl)methyl]-1-oxo-phthalazin-2-yl]acetic acid]	1390	79.3
O=C(O)Cn1nc(Cc2nc3cc(OCC(F)F)c(F)cc3[nH]2)c2ccccc2c1=O [Compound 130, 2-[4-[[5-(2,2-difluoroethoxy)-6-fluoro-1H-benzimidazol-2-yl]methyl]-1-oxo-phthalazin-2-yl]acetic acid]	2500	63.8
CC(C)(C)NC(=O)Cn1nc(Cc2nc3cc(Cl)c(OC(F)(F)F)cc3[nH]2)c2c(c1=O)CCCC2 [Compound 147]	1090	1380
N#Cc1cc2[nH]c(Cc3nn(CC(=O)NCC(F)(F)F)c(=O)c4ccccc34)nc2cc1OCC(F)F [Compound 230, 2-[4-[[6-cyano-5-(2,2-difluoroethoxy)-1H-benzimidazol-2-yl)methyl]-1-oxo-phthalazin-2-yl]-N-(2,2,2-trifluoroethyl)acetamide]	1950	408
CN(C)C(=O)C1CCN(C(=O)Cn2nc(Cc3nc4cc(OCC(F)F)c(C#N)cc4[nH]3)c3ccccc3c2=O)CC1 [Compound 236, 1-[2-[4-[[6-cyano-5-(2,2-difluoroethoxy)-1H-benzimidazol-2-yl]methyl]-1-oxo-phthalazin-2-yl]acetyl]-N,N-dimethyl-piperidine-4-carboxamide]	2090	958
N#Cc1cc2[nH]c(Cc3nn(CC(=O)N4CC5(CCOCC5)C4)c(=O)c4ccccc34)nc2cc1OCC(F)F [Compound 239, 6-(2,2-difluoroethoxy)-2-[[3-[2-(7-oxa-2-azaspiro[3.5]nonan-2-yl)-2-oxo-ethyl]-4-oxo-phthalazin-1-yl]methyl]-3H-benzimidazole-5-carbonitrile]	1740	781
CCS(=O)(=O)C1CCN(C(=O)Cn2nc(Cc3nc4cc(OCC(F)F)c(C#N)cc4[nH]3)c3ccccc3c2=O)CC1 [Compound 240, 6-(2,2-difluoroethoxy)-2-[[3-[2-(4-ethylsulfonyl-1-piperidyl)-2-oxo-ethyl]-4-oxo-phthalazin-1-yl]methyl]-3H-benzimidazole-5-carbonitrile]	1300	345
CC(C(=O)NS(C)(=O)=O)n1nc(Cc2nc3cc(OCC4CC4)c(Cl)cc3[nH]2)c2ccccc2c1=O (stereo not drawn) [Compound 246, N-{2-[4-(6-Chloro-5-cyclopropylmethoxy-1H-benzoimidazol-2-ylmethvl)-1-oxo-1H-phthalazin-2-yl]-propionyl}-methanesulfonamide]	775	13.6
CCOc1cc2nc(Cc3nn(CC(=O)NS(C)(=O)=O)c(=O)c4ccccc34)[nH]c2cc1F [Compound 247, 2-[4-[(5-ethoxy-6-fluoro-1H-benzimidazol-2-yl)methyl]-1-oxo-phthalazin-2-yl]-N-methylsulfonyl-acetamide]	2470	87.9

These reach a lower EC50 (S1PR2). Values come first.

EC50 (S1PR2) [nM]	EC50 [1] [nM]	SMILES
558	143	N#Cc1cc2nc(Cc3nn(CC(=O)N4CCOCC45CCC5)c(=O)c4ccccc34)[nH]c2cc1OCC(F)F [Compound 189, 6-(2,2-difluoroethoxy)-2-[[3-[2-(6-oxa-9-azaspiro[3.5]nonan-9-yl)-2-oxo-ethyl]-4-oxo-phthalazin-1-yl]methyl]-1H-benzimidazole-5-carbonitrile]
137	26.1	CC(C)(C)C(O)CNC(=O)Cn1nc(Cc2nc3cc(OCC(F)F)c(C#N)cc3[nH]2)c2ccccc2c1=O (stereo not drawn) [Compound 222, 2-[4-[[6-cyano-5-(2,2-difluoroethoxy)-1H-benzimidazol-2-yl]methyl]-1-oxo-phthalazin-2-yl]-N-(2-hydroxy-3,3-dimethylbutyl)acetamide]
330	68.8	N#Cc1cc2[nH]c(Cc3nn(CC(=O)NCC(F)F)c(=O)c4ccccc34)nc2cc1OCC(F)F [Compound 223, 2-[4-[[6-cyano-5-(2,2-difluoroethoxy)-1H-benzimidazol-2-yl]methyl]-1-oxo-phthalazin-2-yl]-N-(2,2-difluoroethyl)acetamide]
232	19.6	N#Cc1cc2[nH]c(Cc3nn(CC(=O)NCCC(F)(F)F)c(=O)c4ccccc34)nc2cc1OCC(F)F [Compound 224, 2-[4-[[6-cyano-5-(2,2-difluoroethoxy)-1H-benzimidazol-2-yl]methyl]-1-oxo-phthalazin-2-yl]-N-(3,3,3-trifluoropropyl)acetamide]
552	66.2	N#Cc1cc2[nH]c(Cc3nn(CC(=O)NC(C#N)C4CC4)c(=O)c4ccccc34)nc2cc1OCC(F)F (stereo not drawn) [Compound 226, N-[cyano-(cyclopropyl)methyl]-2-[4-[[6-cyano-5-(2,2-difluoroethoxy)-1H-benzimidazol-2-yl]methyl]-1-oxo-phthalazin-2-yl]acetamide]
52.5	21.1	N#Cc1cc2[nH]c(Cc3nn(CC(=O)NCC(F)(F)CO)c(=O)c4ccccc34)nc2cc1OCC(F)F [Compound 228, 2-[4-[[6-cyano-5-(2,2-difluoroethoxy)-1H-benzimidazol-2-yl]methyl]-1-oxo-phthalazin-2-yl]-N-(2,2-difluoro-3-hydroxypropyl)acetamide]
503	120	N#Cc1cc2[nH]c(Cc3nn(CC(=O)NCCS(N)(=O)=O)c(=O)c4ccccc34)nc2cc1OCC(F)F [Compound 229, 2-[4-[[6-cyano-5-(2,2-difluoroethoxy)-1H-benzimidazol-2-yl]methyl]-1-oxo-phthalazin-2-yl]-N-(2-sulfamoylethyl)acetamide]
453	77.9	N#Cc1cc2[nH]c(Cc3nn(CC(=O)N4CCCC(O)C4)c(=O)c4ccccc34)nc2cc1OCC(F)F (stereo not drawn) [Compound 231, 6-(2,2-difluoroethoxy)-2-[[3-[2-(3-hydroxy-1-piperidyl)-2-oxo-ethyl]-4-oxo-phthalazin-1-yl]methyl]-3H-benzimidazole-5-carbonitrile]
122	16.3	N#Cc1cc2[nH]c(Cc3nn(CC(=O)NCC4CC(F)(F)C4)c(=O)c4ccccc34)nc2cc1OCC(F)F [Compound 232, 2-[4-[[6-cyano-5-(2,2-difluoroethoxy)-1H-benzimidazol-2-yl]methyl]-1-oxo-phthalazin-2-yl]-N-[(3,3-difluorocyclobutyl)methyl]acetamide]
650	55.8	CC(C)(O)C1CCCN(C(=O)Cn2nc(Cc3nc4cc(OCC(F)F)c(C#N)cc4[nH]3)c3ccccc3c2=O)C1 (stereo not drawn) [Compound 237, 6-(2,2-difluoroethoxy)-2-[[3-[2-[3-(1-hydroxy-1-methyl-ethyl)-1-piperidyl]-2-oxo-ethyl]-4-oxo-phthalazin-1-yl]methyl]-3H-benzimidazole-5-carbonitrile]
372	47.2	CN(C)C(=O)CN(C)C(=O)Cn1nc(Cc2nc3cc(OCC(F)F)c(C#N)cc3[nH]2)c2ccccc2c1=O [Compound 241, 2-[4-[[6-cyano-5-(2,2-difluoroethoxy)-1H-benzimidazol-2-yl]methyl]-1-oxo-phthalazin-2-yl]-N-[2-(dimethylamino)-2-oxo-ethyl]-N-methyl-acetamide]
609	14.3	CS(=O)(=O)NC(=O)Cn1nc(Cc2nc3cc(OCC(F)F)c(Cl)cc3[nH]2)c2cc(C#N)ccc2c1=O [Compound 245, 2-[4-[[6-chloro-5-(2,2-difluoroethoxy)-1H-benzimidazol-2-yl]methyl]-6-cyano-1-oxo-phthalazin-2-yl]-N-methylsulfonyl-acetamide]
